Laboratory results taken from ChEMBL document CHEMBL1139410, “Potent CCR4 antagonists: synthesis, evaluation, and docking study of 2,4-diaminoquinazolines” (Bioorg Med Chem, 2008).

What was measured:
[1] = target: T1, C-C chemokine receptor type 4 (Homo sapiens, UniProt P51679); assay: Antagonist activity at human CCR4 receptor by [35S]GTPgammaS binding assay; type: functional
T1 sequence (P51679 whole entry): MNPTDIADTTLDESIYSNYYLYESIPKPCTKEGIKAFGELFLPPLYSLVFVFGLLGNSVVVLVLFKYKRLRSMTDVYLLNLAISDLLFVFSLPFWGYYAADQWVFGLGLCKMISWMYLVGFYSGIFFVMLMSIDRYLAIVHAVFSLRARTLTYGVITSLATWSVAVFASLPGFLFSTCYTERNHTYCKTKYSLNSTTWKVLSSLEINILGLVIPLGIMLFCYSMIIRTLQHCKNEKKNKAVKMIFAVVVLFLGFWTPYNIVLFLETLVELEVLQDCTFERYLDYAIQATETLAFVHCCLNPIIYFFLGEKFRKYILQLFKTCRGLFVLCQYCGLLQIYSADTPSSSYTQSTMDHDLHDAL

[2] = target: T1, C-C chemokine receptor type 4; assay: Displacement of […]CCL22 from human CCR4 receptor by scintillation proximity assay
[3] = target: T2, C-C chemokine receptor type 4 (Mus musculus) (UniProt P51680); assay: Antagonist activity at mouse CCR4 receptor assessed as inhibition of CCL22-induced chemotaxis at 1 uM by bioluminescent assay; type: functional
T2 sequence (whole entry): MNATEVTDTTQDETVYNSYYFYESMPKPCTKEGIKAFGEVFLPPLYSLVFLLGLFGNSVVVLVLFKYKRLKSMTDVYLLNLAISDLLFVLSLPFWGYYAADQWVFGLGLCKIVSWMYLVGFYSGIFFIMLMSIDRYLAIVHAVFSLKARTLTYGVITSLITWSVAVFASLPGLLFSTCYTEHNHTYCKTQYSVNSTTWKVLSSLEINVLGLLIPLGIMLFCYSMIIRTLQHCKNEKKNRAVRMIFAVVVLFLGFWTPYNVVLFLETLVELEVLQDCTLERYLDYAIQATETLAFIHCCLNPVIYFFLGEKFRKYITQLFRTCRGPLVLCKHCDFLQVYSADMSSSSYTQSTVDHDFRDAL

[4] = target: T3, C-C chemokine receptor type 4 (Homo sapiens) (UniProt P51679); assay: Antagonist activity at human CCR4 receptor assessed as inhibition of CCL22-induced chemotaxis at 1 uM by bioluminescent assay; type: functional
T3 sequence (whole entry): T1 sequence (P51679 whole entry)

[5] = test system: Mus musculus; assay: Antiinflammatory activity against oxazolone-induced contact hypersensitivity in acute dermatitis BALB/c mouse model assessed as inhibition of ear swelling at 30 mg/kg, sc administered twice daily before 0.5 hrs and after 8 hrs of oxazolone challenge assessed after 24 hrs; type: functional; settings: route subcutaneous

Row | IC50 [1] | IC50 [2] | inhibition [3] | inhibition [4] | Structure (SMILES) | inhibition in vivo at 30 mg/kg [5]
1 | 220 nM | 510 nM | 11% | 36% | COc1cc2nc(N3CCC(N4CCCC4)CC3)nc(Nc3cccc(Br)c3)c2cc1OC | –
2 | 24 nM | 150 nM | – | – | COc1cc2nc(N3CCC(N4CCCC4)CC3)nc(Nc3ccc(Cl)cc3)c2cc1OC | 42.5%
3 | 98 nM | – | – | 47% | COc1cc2nc(N3CCC(N(C)CCO)CC3)nc(Nc3ccc(Cl)cc3)c2cc1OC | –
4 | 43 nM | – | 32% | – | COc1cc2nc(N3CCC(N(C)CCCO)CC3)nc(Nc3ccc(Cl)cc3)c2cc1OC | –
5 | 31 nM | – | – | – | COc1cc2nc(N3CCC(N4CCCC4)CC3)nc(Nc3ccc(F)cc3)c2cc1OC | –
6 | 92 nM | – | 42% | 15% | CCN(CC)CCN1CCCN(c2nc(Nc3ccc(Cl)cc3)c3cc(OC)c(OC)cc3n2)CC1 | –
7 | 130 nM | – | – | – | COc1cc2nc(N3CCCN(CCN4CCCCC4)CC3)nc(Nc3ccc(Cl)cc3)c2cc1OC | –
8 | 25 nM | – | – | – | COc1cc2nc(N3CCC(N4CCCC4)CC3)nc(Nc3ccc(F)c(F)c3)c2cc1OC | –
9 | 150 nM | – | – | – | COc1cc2nc(N3CCCN(CCN4CCCC4)CC3)nc(Nc3ccc(Cl)cc3)c2cc1OC | –
10 | 550 nM | – | – | – | COc1cc2nc(N3CCCN(C4CCCCC4)CC3)nc(Nc3ccc(Cl)cc3)c2cc1OC | –
11 | 61 nM | – | 42% | – | COc1cc2nc(N3CCC(N(C)CCCCO)CC3)nc(Nc3ccc(Cl)cc3)c2cc1OC | –
